Source: patent US5874235A, “Screening assays for cancer chemopreventative agents” (The Johns Hopkins University, priority 1997, dated 1999)
Where two headings read alike, the source gives them in different places.

Key:
Type in all cases: cell-based, human
[1] = system: SW480 cells; test: cells; conditions: for increase in arachidonic acid: apoptosis-inducing doses of SUS
Procedure: (§1) FIGS. 4A, 4B, 4C, 4D, 4E and 4F. The role of arachidonic acid in NSAID-mediated apoptosis. […] HCT116 and SW480 cells were treated with the indicated concentrations of SUS or INDO. Arachidonic acid (AA) levels were determined by measuring release of ^3 H-AA into the media as previously described (18). Data are indicated as the mean of three replicates with the error bars corresponding to the standard deviation. In addition, the nature of the released radiolabeled material was evaluated by thin layer chromatography as previously described (28). […] HCT116 and SW480 cells were incubated with ^3 H-choline chloride (0.5 mCi ml^-1, 80 Ci mmol^-1, New England Nuclear) for 48 hours. After labeling, cells were washed with HBSS (Gibco) and treated with SUS or INDO for the indicated times. Sphingomyelin measurements were performed using the bacterial sphingomyelinase method as previously described (18). Sphingomyelin levels at each time point are plotted as a percentage of that in untreated control cells. For each point, the mean of at least two independent experiments is presented with the error bars corresponding to the standard deviations. […] SW480 cells were treated with 200 μM arachidonic acid (AA), SUS (SUS) or behenic acid as a control fatty acid (FA) as indicated. […] SW480 cells were treated with suboptimal doses (100 μM) of arachidonic acid (AA), SUS (SUS), or both (AA+SUS) as indicated. After 48 hours of treatment, apoptosis and ceramide increases were assessed as described for FIGS. 1 and 3, respectively. Ceramide increases (left axis) were expressed as fold increases relative to untreated cells. Apoptosis (right axis) was expressed as percent apoptotic cells minus percent apoptotic cells in untreated cells (5.6%+/-2.4). Data are indicated as the mean of duplicates with the error bars corresponding to the standard deviation.
(§2) Arachidonic acid is known to stimulate neutral sphingomyelinase (18), which catalyzes the conversion of sphingomyelin to ceramide. We therefore considered the possibility that inhibition of COX activity might lead to increases in arachidonic acid, the substrate for COX. To test this hypothesis, we first determined whether SUS stimulated arachidonic acid accumulation. In both SW480 and HCT 116 cells, apoptosis-inducing doses of SUS increased arachidonic acid by 2 to 3 fold at 24 hours and by approximately 5 fold at 48 hours (FIGS. 4A and 4B). The arachidonic acid increase following SUS treatment was as great as that following treatment with mellitin, a known activator of phospholipase A2. Arachidonic acid levels in HCT116 cells increased 3.5 fold one hour after treatment with 1 μM mellitin. Likewise, arachidonic acid levels increased 2.9 fold in SW480 cells one hour after mellitin treatment. Arachidonic acid (AA) levels were determined by measuring release of ^3 H-AA into the media as previously described (18). The nature of released radiolabeled material was evaluated by thin layer chromatography analysis as previously described (28).

[2] = system: HCT116 cells; test: Arachidonic acid levels, release of 3H-AA into the media; conditions: for fold induction at 50 µM: 50 μM SUS, read-out: arachidonic acid levels relative to control; for increase in arachidonic acid: apoptosis-inducing doses of SUS
Procedure: as §1, §2

[3] = system: SW480 cells; test: Ceramide levels, E. coli diacylglycerol (DAG) kinase assay
Procedure: (§3) Cells were harvested and ceramide was quantified. The first lane of each panel corresponds to a ceramide standard (ceramide type III, Sigma). […] HCT116 and SW480 cells were treated with SUS or INDO as indicated. Ceramide levels were determined as described above. […] Control cells were treated with DMSO vehicle only. Cells were harvested at the indicated times following treatment and ceramide levels were determined as described above. The data are plotted as the mean of at least two experiments with the error bars corresponding to the standard deviation.
(§4) Ceramide levels were measured using the Escherichia coli diacylglycerol (DAG) kinase assay as previously described (30) with the following modifications. After the initial lipid extraction, phases were broken by adding 2 ml chloroform and 2 ml 1M NaCl and lipids were washed with 1M NaCl prior to drying under nitrogen (32, 33). After solubilization, samples were sonicated for 15 seconds. The DAG reaction was performed for 30 minutes at 25° C. in a 100 μl reaction volume with 3.5 μg DAG kinase (Calbiochem) and […] γ^32 P-ATP (Dupont NEN, 6000 Ci/mmol). After extraction of the labeled lipids, the lower chloroform phase was washed with 1% HCl prior to drying under nitrogen. The solvent mixture for thin layer chromatography was chloroform:acetone:methanol:acetic acid:water (10:4:3:2:1). Samples were quantitated using a Phosphorimager (Molecular Dynamics).

[4] = system: HCT116 cells; test: as above
Procedure: as §3, §4

[5] = system: COX in SW480 cells; test: COX activity in treated cells
[6] = system: COX in HCT116 cells; test: COX activity in treated cells
[7] = system: SW480 cells; test: Sphingomyelin levels, bacterial sphingomyelinase method
Procedure: as §1
(§5) To test whether the increased ceramide was associated with evidence of augmented sphingomyelinase activity, we measured total sphingomyelin levels after SUS treatment. […] We also measured neutral sphingomyelinase activity in lysates from the treated cells and no differences were found. Neutral sphingomyelinase activity was assayed as described (18). After cell lysis, protein concentrations were determined using the Bradford method (Bio-Rad) and […] cellular protein was used in each assay. Neutral sphingomyelinase activity was determined by measuring the rate of hydrolysis of ^14 C-labelled sphingomyelin (Amersham). SW480 and HCT116 cell lines were treated with SUS (50, 200, and 600 μM) for 6 to 24 hours.

[8] = system: HCT116 cells; test: as above
Procedure: as §1, §5

[9] = 8 hours post-treatment, before morphologic features of apoptosis

SMILES: CSc1ccc(/C=C2/C(C)=C(CC(=O)O)c3cc(F)ccc32)cc1 [SUS, sulindac sulfide]
- fold induction at 200 µM ([1]; Homo sapiens, SW480, 200 μM SUS, 16 hours, read-out: increase in arachidonic acid): 3.4
- increase in arachidonic acid ([1]; 24 hours): 2 to 3 fold
- increase in arachidonic acid ([1]; 48 hours): approximately 5 fold
- fold induction at 50 µM ([2]; Homo sapiens, HCT-116, 8 hours): 0.9
- fold induction at 50 µM ([2]; Homo sapiens, HCT-116, 16 hours): 1.05
- fold induction at 50 µM ([2]; Homo sapiens, HCT-116, 24 hours): 1.14
- fold induction at 200 µM ([2]; Homo sapiens, HCT-116, 200 μM SUS, 16 hours, read-out: increase in arachidonic acid): 5.1
- increase in arachidonic acid ([2]; 24 hours): 2 to 3 fold
- increase in arachidonic acid ([2]; 48 hours): approximately 5 fold
- ceramide levels early after treatment [3, 9]: increased to substantial levels
- fold induction at 200 µM ([3]; Homo sapiens, SW480, SUS 200 μM, with or without 10 μM CHX, 48 hours, read-out: fold increase in ceramide levels relative to vehicle controls): 9.2 ± 0.1
- magnitude of the ceramide increase ([3]; SUS): 10 fold
- ceramide induction ([3]; SUS 50 μM): did not induce ceramide
- ceramide induction ([3]; SUS 100 μM): not at 100 μM
- ceramide induction ([3]; SUS 200 μM): induced both ceramide and cell death
- time of maximum ceramide induction ([3]; SUS 200 μM): 24 to 48 h
- effect on ceramide levels ([3]; suboptimal doses, 100 μM each, separately or together, 48 hours): little effect on ceramide levels
- ceramide levels early after treatment [4, 9]: increased to substantial levels
- fold induction at 125 µM ([4]; Homo sapiens, HCT-116, SUS 125 μM, with or without 10 μM CHX, 48 hours, read-out: fold increase in ceramide levels relative to vehicle controls): 10 ± 0.4
- ceramide induction ([4]; SUS 50 μM): induced neither
- ceramide induction ([4]; SUS 125 μM): induced both cell death and ceramide
- time of maximum ceramide induction ([4]; SUS 125 μM): 24 to 48 h
- COX activity, % of controls ([5]; 50 μM SUS): 74+/-22%
- COX activity, % of controls ([5]; 200 μM SUS): 37+/-27%
- COX activity, % relative to controls ([6]; 50 μM SUS): 98+/-30%
- COX activity, % of controls ([6]; 125 μM SUS): 21+/-15%
- decrease in sphingomyelin levels ([7]; 48 hours after SUS treatment): 40-50%
- decrease in sphingomyelin levels ([7]; suboptimal doses of SUS): inadequate to decrease sphingomyelin levels
- decrease in sphingomyelin levels ([8]; 48 hours after SUS treatment): 40-50%
- decrease in sphingomyelin levels ([8]; suboptimal doses of SUS): inadequate to decrease sphingomyelin levels
